Test results from patent US12421211B2, “Heterocyclic compounds” (Hoffmann-La Roche Inc., priority 2021, dated 2025).
Counter-ions that a name gives are not always drawn.

system: Acinetobacter baumannii ATCC17961; test: Antimicrobial susceptibility testing: 90% growth inhibitory concentration (IC90) determination; format: cell-based; settings: Acinetobacter baumannii, ATCC17961, 16 h, 90% growth inhibitory concentration, Acinetobacter baumannii ATCC17961, Iso-Sensitest broth, OD 600 nm over 16 h; read-out: ATCC 17961 IC90
Summary of the method: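 Growth inhibition derived in log phase from OD600 kinetics (every 20 minutes, 16h, 35±2° C) of ATCC17961 in Iso-Sensitest medium, inoculum ~5×10^5 CFU/ml. Compounds tested as twofold series, 10 points (e.g. 50 to 0.097 μM final); IC90 and IC50 reported.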

Structure (SMILES)	IC90 [µM]
Cc1nn(CC(=O)N2CCCCC2)cc1-c1ccc(-c2cnc(C(=O)Nc3ccc(C(=O)N4CCN(C(=O)C5CC[N+](C)(C)CC5)CC4)c(Cl)c3)n2C)c(F)c1F [Example G29, N-[3-chloro-4-[4-(1,1-dimethylpiperidin-1-ium-4-carbonyl)piperazine-1-carbonyl]phenyl]-5-[2,3-difluoro-4-[3-methyl-1-[2-oxo-2-(1-piperidyl)ethyl]pyrazol-4-yl]phenyl]-1-methyl-imidazole-2-carboxamide; formate]	0.33
Cc1nn(CC(=O)Nc2ccc(C(=O)N3CC[N+](C)(C)CC3)cc2)cc1-c1ccc(-c2cnc(C(=O)Nc3ccc(C(=O)N4CCN(C(=O)C5CC[N+](C)(C)CC5)CC4)c(Cl)c3)n2C)c(F)c1F [Example G30, N-[3-chloro-4-[4-(1,1-dimethylpiperidin-1-ium-4-carbonyl)piperazine-1-carbonyl]phenyl]-5-[4-[1-[2-[4-(4,4-dimethylpiperazin-4-ium-1-carbonyl)anilino]-2-oxo-ethyl]-3-methyl-pyrazol-4-yl]-2,3-difluoro-phenyl]-1-methyl-imidazole-2-carboxamide; diformate]	1
Cc1nn(CC(=O)Nc2ccc(F)nn2)cc1-c1ccc(-c2cnc(C(=O)Nc3ccc(C(=O)N4CCN(C(=O)C5CC[N+](C)(C)CC5)CC4)c(Cl)c3)n2C)c(F)c1F [Example G31, N-[3-chloro-4-[4-(1,1-dimethylpiperidin-1-ium-4-carbonyl)piperazine-1-carbonyl]phenyl]-5-[2,3-difluoro-4-[1-[2-[(6-fluoropyridazin-3-yl)amino]-2-oxo-ethyl]-3-methyl-pyrazol-4-yl]phenyl]-1-methyl-imidazole-2-carboxamide; formate]	0.14
Cc1nn(CC(=O)Nc2ccnnc2)cc1-c1ccc(-c2cnc(C(=O)Nc3ccc(C(=O)N4CCN(C(=O)C5CC[N+](C)(C)CC5)CC4)c(Cl)c3)n2C)c(F)c1F [Example G33, N-[3-chloro-4-[4-(1,1-dimethylpiperidin-1-ium-4-carbonyl)piperazine-1-carbonyl]phenyl]-5-[2,3-difluoro-4-[3-methyl-1-[2-oxo-2-(pyridazin-4-ylamino)ethyl]pyrazol-4-yl]phenyl]-1-methyl-imidazole-2-carboxamide; formate]	0.44
Cc1nn(CC(=O)Nc2ccc(C#N)nc2)cc1-c1ccc(-c2cnc(C(=O)Nc3ccc(C(=O)N4CCN(C(=O)C5CC[N+](C)(C)CC5)CC4)c(Cl)c3)n2C)c(F)c1F [Example G34, N-[3-chloro-4-[4-(1,1-dimethylpiperidin-1-ium-4-carbonyl)piperazine-1-carbonyl]phenyl]-5-[4-[1-[2-[(6-cyano-3-pyridyl)amino]-2-oxo-ethyl]-3-methyl-pyrazol-4-yl]-2,3-difluoro-phenyl]-1-methyl-imidazole-2-carboxamide; formate]	0.068
Cc1c(-c2ccc(-c3cnc(C(=O)Nc4ccc(C(=O)N5CCN(C(=O)C6CC[N+](C)(C)CC6)CC5)c(Cl)c4)n3C)c(F)c2F)cnn1CCNC(=O)c1ccccn1 [Example H1, N-[2-[4-[4-[2-[[3-chloro-4-[4-(1,1-dimethylpiperidin-1-ium-4-carbonyl)piperazine-1-carbonyl]phenyl]carbamoyl]-3-methyl-imidazol-4-yl]-2,3-difluoro-phenyl]-5-methyl-pyrazol-1-yl]ethyl]pyridine-2-carboxamide formate]	0.15
Cc1nn(CCNC(=O)c2ccccn2)cc1-c1ccc(-c2cnc(C(=O)Nc3ccc(C(=O)N4CCN(C(=O)C5CC[N+](C)(C)CC5)CC4)c(Cl)c3)n2C)c(F)c1F [Example H2, N-[2-[4-[4-[2-[[3-chloro-4-[4-(1,1-dimethylpiperidin-1-ium-4-carbonyl)piperazine-1-carbonyl]phenyl]carbamoyl]-3-methyl-imidazol-4-yl]-2,3-difluoro-phenyl]-3-methyl-pyrazol-1-yl]ethyl]pyridine-2-carboxamide; formate]	0.19
Cc1nn(CCNS(=O)(=O)c2ccc(F)cc2)cc1-c1ccc(-c2cnc(C(=O)Nc3ccc(C(=O)N4CCN(C(=O)C5CC[N+](C)(C)CC5)CC4)c(Cl)c3)n2C)c(F)c1F [Example H3, N-[3-chloro-4-[4-(1,1-dimethylpiperidin-1-ium-4-carbonyl)piperazine-1-carbonyl]phenyl]-5-[2,3-difluoro-4-[1-[2-[(4-fluorophenyl)sulfonylamino]ethyl]-3-methyl-pyrazol-4-yl]phenyl]-1-methyl-imidazole-2-carboxamide; formate]	0.18
Cc1c(-c2ccc(-c3cnc(C(=O)Nc4ccc(C(=O)N5CCN(C(=O)C6CC[N+](C)(C)CC6)CC5)c(Cl)c4)n3C)c(F)c2F)cnn1CCNC(=O)NC(C)(C)C [Example H4, 5-[4-[1-[2-(tert-butylcarbamoylamino)ethyl]-5-methyl-pyrazol-4-yl]-2,3-difluoro-phenyl]-N-[3-chloro-4-[4-(1,1-dimethylpiperidin-1-ium-4-carbonyl)piperazine-1-carbonyl]phenyl]-1-methyl-imidazole-2-carboxamide; formate]	0.16
Cc1nn(CCNC(=O)NC(C)(C)C)cc1-c1ccc(-c2cnc(C(=O)Nc3ccc(C(=O)N4CCN(C(=O)C5CC[N+](C)(C)CC5)CC4)c(Cl)c3)n2C)c(F)c1F [Example H5, 5-[4-[1-[2-(tert-butylcarbamoylamino)ethyl]-3-methyl-pyrazol-4-yl]-2,3-difluoro-phenyl]-N-[3-chloro-4-[4-(1,1-dimethylpiperidin-1-ium-4-carbonyl)piperazine-1-carbonyl]phenyl]-1-methyl-imidazole-2-carboxamide; formate]	0.17
Cc1c(-c2ccc(-c3cnc(C(=O)Nc4ccc(C(=O)N5CCN(C(=O)C6CC[N+](C)(C)CC6)CC5)c(Cl)c4)n3C)c(F)c2F)cnn1CCNC(=O)Nc1ccccn1 [Example H6, N-[3-chloro-4-[4-(1,1-dimethylpiperidin-1-ium-4-carbonyl)piperazine-1-carbonyl]phenyl]-5-[2,3-difluoro-4-[5-methyl-1-[2-(2-pyridylcarbamoylamino)ethyl]pyrazol-4-yl]phenyl]-1-methyl-imidazole-2-carboxamide; formate]	0.17
Cc1nn(CCNC(=O)Nc2ccccn2)cc1-c1ccc(-c2cnc(C(=O)Nc3ccc(C(=O)N4CCN(C(=O)C5CC[N+](C)(C)CC5)CC4)c(Cl)c3)n2C)c(F)c1F [Example H7, N-[3-chloro-4-[4-(1,1-dimethylpiperidin-1-ium-4-carbonyl)piperazine-1-carbonyl]phenyl]-5-[2,3-difluoro-4-[3-methyl-1-[2-(2-pyridylcarbamoylamino)ethyl]pyrazol-4-yl]phenyl]-1-methyl-imidazole-2-carboxamide; formate]	0.19
Cc1nn(CCNC(=O)N2CCCC2)cc1-c1ccc(-c2cnc(C(=O)Nc3ccc(C(=O)N4CCN(C(=O)C5CC[N+](C)(C)CC5)CC4)c(Cl)c3)n2C)c(F)c1F [Example H8, N-[3-chloro-4-[4-(1,1-dimethylpiperidin-1-ium-4-carbonyl)piperazine-1-carbonyl]phenyl]-5-[2,3-difluoro-4-[3-methyl-1-[2-(pyrrolidine-1-carbonylamino)ethyl]pyrazol-4-yl]phenyl]-1-methyl-imidazole-2-carboxamide; formate]	0.54

More lines, now with the values ahead:

IC90 [µM]	Structure (SMILES)
1.5	COc1ccccc1-c1[nH]ncc1-c1ccc(-c2cnc(C(=O)Nc3ccc(C(=O)N4CCN(C(=O)C5CC[N+](C)(C)CC5)CC4)c(Cl)c3)n2C)c(F)c1F [Example I4, N-[3-chloro-4-[4-(1,1-dimethylpiperidin-1-ium-4-carbonyl)piperazine-1-carbonyl]phenyl]-5-[2,3-difluoro-4-[5-(2-methoxyphenyl)-1H-pyrazol-4-yl]phenyl]-1-methyl-imidazole-2-carboxamide; formate]
0.82	Cn1c(-c2ccc(-c3cn[nH]c3C3CCOCC3)c(F)c2F)cnc1C(=O)Nc1ccc(C(=O)N2CCN(C(=O)C3CC[N+](C)(C)CC3)CC2)c(Cl)c1 [Example I6, N-[3-chloro-4-[4-(1,1-dimethylpiperidin-1-ium-4-carbonyl)piperazine-1-carbonyl]phenyl]-5-[2,3-difluoro-4-(5-tetrahydropyran-4-yl-1H-pyrazol-4-yl)phenyl]-1-methyl-imidazole-2-carboxamide; formate]
0.76	Cn1c(-c2ccc(-c3cn[nH]c3C3=CCOCC3)c(F)c2F)cnc1C(=O)Nc1ccc(C(=O)N2CCN(C(=O)C3CC[N+](C)(C)CC3)CC2)c(Cl)c1 [Example I7, N-[3-chloro-4-[4-(1,1-dimethylpiperidin-1-ium-4-carbonyl)piperazine-1-carbonyl]phenyl]-5-[4-[5-(3,6-dihydro-2H-pyran-4-yl)-1H-pyrazol-4-yl]-2,3-difluoro-phenyl]-1-methyl-imidazole-2-carboxamide;formate]
0.022	Cc1n[nH]cc1-c1ccc(-c2cnc(C(=O)Nc3ccc(C(=O)N4CCN(C(=O)C5CC[N+](C)(CC6CNC6)CC5)CC4)c(Cl)c3)n2C)c(F)c1F (stereo not drawn) [Example J1, N-[4-[4-[1-(azetidin-3-ylmethyl)-1-methyl-piperidin-1-ium-4-carbonyl]piperazine-1-carbonyl]-3-chloro-phenyl]-5-[2,3-difluoro-4-(3-methyl-1H-pyrazol-4-yl)phenyl]-1-methyl-imidazole-2-carboxamide; formate]
0.6	Cc1nn(CCOCCN)c(C)c1-c1ccc(-c2cnc(C(=O)Nc3ccc(C(=O)N4CCN(C(=O)[C@@H]5C[C@@H](O)C[N+]5(C)C)CC4)c(Cl)c3)n2C)c(F)c1F [Example K1, 5-[4-[1-[2-(2-aminoethoxy)ethyl]-3,5-dimethyl-pyrazol-4-yl]-2,3-difluoro-phenyl]-N-[3-chloro-4-[4-[(2S,4R)-4-hydroxy-1,1-dimethyl-pyrrolidin-1-ium-2-carbonyl]piperazine-1-carbonyl]phenyl]-1-methyl-imidazole-2-carboxamide; 2,2,2-trifluoroacetate]
